In the METLIN SMRT retention time set (Domingo-Almenara et al. 2019):

test: gradient 5% acetonitrile 3 min, to 50% in 2 min, to 85% in 15 min, held 3 min, 100 µL/min; conditions: column: Zorbax Extend-C18 2.1 x 50 mm; eluents: water / acetonitrile, 0.1% formic acid
In short: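 Mixtures of ~100 pure standards were chromatographed on a Zorbax Extend-C18 column (2.1 × 50 mm, 1.8 μm) at 100 μL/min using water and acetonitrile, each with 0.1% formic acid. Detection used a quadrupole time-of-flight mass spectrometer in positive and negative ionization mode, and data collection spanned 3 months. Retention time was obtained from adduct peaks picked computationally and each checked manually.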

Row | SMILES | RP-LC retention time [s]
1 | COc1ccc(C)cc1NC(=O)N1CCC2(CC1)NC(=O)c1ccc(Cl)cc1N2C | 884
2 | CCc1nc2cc(N3CCCC(C(=O)NCC4CCCO4)C3)cnc2nc1CC (stereo unspecified) | 694
3 | Cc1noc(C2CN(C(=O)Nc3ccccc3F)CC23CCOCC3)n1 (stereo unspecified) | 694
4 | CCN(C(=O)Cc1ccccc1)c1nc(-c2ccccc2)cs1 | 1270
5 | Cc1cc(-c2nnc(-c3ccco3)o2)c(C)n1CC(=O)NCc1ccc(F)cc1 | 849
6 | Cc1ccc(-c2nc3nc(C)cc(N(C)CCO)n3n2)cc1 | 638
7 | Cc1ccc(CN2CCN(C3CCN(C(=O)Nc4cccc(C)c4)CC3)C(=O)C2=O)cc1 | 740
8 | Cc1ccc(-n2cc3c(N4CCCC(C(=O)NCc5ccc(C(F)(F)F)cc5)C4)ncnc3n2)cc1 (stereo unspecified) | 786
9 | COc1ccc(-c2ncc3c(n2)CCN(C(=O)c2cccc(Br)c2)C3)cc1 | 1020
10 | CCOC(=O)c1c(C)oc2nc(C)nc(NCCN3CCN(c4ccc(OC)cc4)CC3)c12 | 732
11 | Cn1ccc(C(=O)Nc2ccc(S(C)(=O)=O)cc2)n1 | 613
12 | CS(=O)(=O)NCCc1ccc(CC2CCNCC2)cc1 | 588
13 | O=C(NC1CCN(c2cc(-c3cccs3)[nH]n2)C1)c1ccccc1 (stereo unspecified) | 695
14 | Cc1cccc(Sc2nccnc2N2CCC(C(=O)NCCCc3ccccc3)CC2)c1 | 1140
15 | O=C(NCCc1c[nH]c2ccccc12)c1cc(-c2ccc(F)cc2)c[nH]1 | 859
16 | CCN1CCN(CCNC(=O)CCCn2c3ccccc3c3cnn(C)c(=O)c32)CC1 | 579
17 | COc1cccc(-c2ccc(=O)n(Cc3nc(-c4cccc(Br)c4)no3)n2)c1 | 1110
18 | C=CCn1c(=O)c2ccccc2n(Cc2nc(-c3cccc(C)c3)no2)c1=O | 1080
19 | O=C(NCc1ccc2c(c1)OCO2)C1CCN(C(=O)c2ncn3c2COC(c2ccccc2)C3)CC1 (stereo unspecified) | 752
20 | CC(C)N1C(=O)c2cccnc2Sc2cc(NC(=O)Cc3ccsc3)ccc21 | 823
21 | COc1cccc(NC(=O)C2CCN(S(=O)(=O)c3cc(-c4noc(C5CC5)n4)cs3)CC2)c1 | 1000
22 | O=C(C1CCN(c2cncnc2N2CCCC2)CC1)N1CCN(c2ccc(F)cc2)CC1 | 670

Row | SMILES | RP-LC retention time [s]
23 | O=C(NCc1ccco1)C1CCN(c2nc3ccccc3nc2C(F)(F)F)CC1 | 1000
24 | CCOC(=O)CC1(NC(=O)N2CCCn3nc(-c4ccncc4)cc3C2)CCCCC1 | 595
25 | CCC(=O)Nc1ccc2c(c1)CN(C(=O)c1ccccc1Cl)C(C(=O)N1CCCC1)C2 (stereo unspecified) | 714
26 | CCOc1ccccc1NC(=O)Cn1c(=O)n(-c2ccccc2)c(=O)c2c1cc(C)n2C | 909
27 | O=S(=O)(NCC1CCCO1)c1ccc(Cl)c(-c2nnc(-c3ccccc3)o2)c1 (stereo unspecified) | 914
28 | CN(C)C[C@@H]1CN(c2ccncn2)C[C@H]1NC(=O)c1nccc2ccccc12 | 557
29 | Cc1ccc2[nH]c(=O)c(CCC(=O)NC(C)c3cn(C)nc3C)cc2c1 (stereo unspecified) | 618
30 | CNCc1ccc(-c2ccccc2Cl)o1 | 642
31 | Cc1cc(C)nc(-n2nc(C)cc2N)n1 | 577
32 | CCC1(CC)NC(=O)N(CC(=O)Nc2ccc(C(=O)OC)cc2)C1=O | 671
33 | CC1(C)CC(NC(=O)COc2ccc(Cl)cc2Br)CC(C)(C)N1 | 661
34 | CC(Oc1cccc(Cl)c1)c1nc(-c2ccc3c(c2)nnn3CCC(=O)N2CCCC2)no1 (stereo unspecified) | 1010
35 | O=c1n(CC2CC2)nc2n1CCN(Cc1cccc(O)c1)C2 | 610
36 | O=C(CCc1csc(NC(=O)Nc2ccccc2)n1)Nc1nc2ccccc2s1 | 864
37 | O=C(CN1CCN(Cc2ccccc2)C1=O)NCc1ccc(F)cc1Cl | 833
38 | COc1ccccc1N1CCN(c2ncc(S(=O)(=O)c3ccccc3)c(N)n2)CC1 | 903
39 | CC1(C(=O)NCc2ccc(F)cc2)CN(S(C)(=O)=O)CC(=O)N1c1cccc(F)c1 (stereo unspecified) | 764
40 | COCCCNC(=O)C1CCN(Cc2cc3ccccc3n2Cc2ccccc2Cl)CC1 | 713
41 | CC(=O)N1CCc2sc(S(=O)(=O)N3CCN(c4cccc(Cl)c4)CC3)cc2C1 | 957
42 | CCNC(=O)Cn1c(=O)c2cnc(-c3ccc(Cl)cc3)nc2n(C)c1=O | 927
43 | O=C(Nc1cccn2c(C3CCC3)nnc12)c1ccncc1 | 665
44 | CCCN(CCC)S(=O)(=O)c1cc(-c2nnc(C)o2)co1 | 897

Row | SMILES | RP-LC retention time [s]
45 | CCCN1CCN(CCCNC(=O)c2c(-c3ccc(Br)s3)noc2C)CC1 | 609
46 | CC(C)NC(=O)c1ccc(-c2ccc(N3CCSCC3)nc2)cc1 | 663
47 | CC(C)Cn1cc(S(=O)(=O)NCc2cccc(Cl)c2)c2cccnc21 | 1020
48 | O=C(Cc1cccs1)Nc1nnc(SCC(=O)N2CCCc3ccccc32)s1 | 805
49 | COC(=O)[C@H]1[C@H]2C[C@@H]3c4[nH]c5cc(OC)ccc5c4CCN3C[C@H]2C[C@@H](OC(=O)CC(C)=O)[C@@H]1OC | 731
50 | O=C(CC1CCN(C(=O)C2(c3ccccc3)CC2)C1)NC1CC1 (stereo unspecified) | 666
51 | CN1CCc2c(c(CNC(=O)c3cc(CN4CCOCC4)on3)nn2C)C1 | 770
52 | Cc1ccc(OCC(=O)NC[C@@]23CCC[C@H]2N(C)C(=O)CC3)cc1 | 674
53 | Cc1ccc(N2CCC(NC(=O)Nc3ccc(C)c(C)c3)C2=O)cc1 (stereo unspecified) | 902
54 | CCN(Cc1ccccc1)S(=O)(=O)c1cc(-c2nnc(C3CCC3)o2)co1 | 913
55 | CN(C1=NC(=O)/C(=C/c2cc(Cl)ccc2OCC(=O)O)S1)c1ccc(O)cc1 | 669
56 | COc1cc(Cl)c(NS(=O)(=O)c2cc(-c3c(C)noc3NC(C)=O)ccc2OC)c(OC)c1 | 784
57 | CCOC(=O)c1oc2ccccc2c1NC(=O)C1CCN(S(C)(=O)=O)CC1 | 762
58 | Cn1c(SCc2ccc([N+](=O)[O-])cc2)nnc1-c1cccnc1 | 627
59 | CCN1CCn2cc(S(=O)(=O)N3CCN(c4ccccc4)CC3)cc2C1=O | 684
60 | CCc1cc(C(=O)Nc2ccccc2C)nc2ccnn12 | 1010
61 | CCc1nc2cc(-c3noc(CNC(=O)Cc4ccc(Cl)cc4)n3)ccc2o1 | 882
62 | CCn1c(=O)c(N2CCN(C(=O)c3cccs3)CC2)nc2cccnc21 | 900
63 | O=C(NC1CC1)c1ccc(N2CCC(NCc3cc(Br)ccc3O)C2)nc1 (stereo unspecified) | 576
64 | COc1ccc(CCC(=O)N2CCCC2c2cc(C)on2)cc1 (stereo unspecified) | 775
65 | CNC(=O)C1CCN(Cc2noc(-c3ccc(F)cc3)n2)CC1 | 581
66 | CCS(=O)(=O)N1CC(=O)N(c2ccc(Cl)cc2)C(C)(C(=O)NCc2ccccc2)C1 (stereo unspecified) | 848
